From article PMC6109843, “Novel Quinazolinone Inhibitors of ALK2 Flip between Alternate Binding Modes: Structure–Activity Relationship, Structural Characterization, Kinase Profiling, and Cellular Proof of Concept” (Journal of Medicinal Chemistry, 2018)

Tests used:
Test in all cases: DiscoverX scanEDGE kinase panel
Type in all cases: binding
Details in all cases: Cmpd Conc 1000 nM, read-out: % Ctrl
ABL1(T315I)EP = molecular target: T1, ABL1(T315I)EP (Homo sapiens, UniProt P00519, T315I)
T1 construct: purchased DiscoverX (DiscoveRx) KINOMEscan scanEDGE / KdELECT
Source text: (§1) We hypothesized that inhibitors of the normal and flipped modes would display distinct selectivity profiles.
(§2) 1. 16 and 21 kinome selectivity data
(§3) (P – phosphorylated; nP – nonphosphorylated; % Ctrl values show the % of DNAEtagged
(§4) kinase which was not displaced from a solid supported ligand by a test compound relative to
(§5) untreated control, quantified by qPCR).
(§6) Please note: ALKs 1, 2, 3, 4, 5 and 6 are listed by their gene symbols: ACVRL1 (ALK1), ACVR1
(§7) (ALK2), BMPR1A (ALK3), ACVR1B (ALK4), TGFBR1 (ALK5) and BMPR1B (ALK6)
(§8) Cmpd DiscoverX Gene Symbol Entrez Gene Symbol % Ctrl Cmpd Conc (nM)

ABL1EP = molecular target: T2, ABL1EP (Homo sapiens, UniProt P00519)
T2 construct: purchased DiscoverX (DiscoveRx) KINOMEscan scanEDGE / KdELECT
Source text: as §1, §2, §3, §4, §5, §6, §7, §8

ABL2 = molecular target: T3, ABL2 (Homo sapiens, UniProt P42684)
T3 construct: purchased DiscoverX (DiscoveRx) KINOMEscan scanEDGE / KdELECT
T3 sequence (P42684 whole entry): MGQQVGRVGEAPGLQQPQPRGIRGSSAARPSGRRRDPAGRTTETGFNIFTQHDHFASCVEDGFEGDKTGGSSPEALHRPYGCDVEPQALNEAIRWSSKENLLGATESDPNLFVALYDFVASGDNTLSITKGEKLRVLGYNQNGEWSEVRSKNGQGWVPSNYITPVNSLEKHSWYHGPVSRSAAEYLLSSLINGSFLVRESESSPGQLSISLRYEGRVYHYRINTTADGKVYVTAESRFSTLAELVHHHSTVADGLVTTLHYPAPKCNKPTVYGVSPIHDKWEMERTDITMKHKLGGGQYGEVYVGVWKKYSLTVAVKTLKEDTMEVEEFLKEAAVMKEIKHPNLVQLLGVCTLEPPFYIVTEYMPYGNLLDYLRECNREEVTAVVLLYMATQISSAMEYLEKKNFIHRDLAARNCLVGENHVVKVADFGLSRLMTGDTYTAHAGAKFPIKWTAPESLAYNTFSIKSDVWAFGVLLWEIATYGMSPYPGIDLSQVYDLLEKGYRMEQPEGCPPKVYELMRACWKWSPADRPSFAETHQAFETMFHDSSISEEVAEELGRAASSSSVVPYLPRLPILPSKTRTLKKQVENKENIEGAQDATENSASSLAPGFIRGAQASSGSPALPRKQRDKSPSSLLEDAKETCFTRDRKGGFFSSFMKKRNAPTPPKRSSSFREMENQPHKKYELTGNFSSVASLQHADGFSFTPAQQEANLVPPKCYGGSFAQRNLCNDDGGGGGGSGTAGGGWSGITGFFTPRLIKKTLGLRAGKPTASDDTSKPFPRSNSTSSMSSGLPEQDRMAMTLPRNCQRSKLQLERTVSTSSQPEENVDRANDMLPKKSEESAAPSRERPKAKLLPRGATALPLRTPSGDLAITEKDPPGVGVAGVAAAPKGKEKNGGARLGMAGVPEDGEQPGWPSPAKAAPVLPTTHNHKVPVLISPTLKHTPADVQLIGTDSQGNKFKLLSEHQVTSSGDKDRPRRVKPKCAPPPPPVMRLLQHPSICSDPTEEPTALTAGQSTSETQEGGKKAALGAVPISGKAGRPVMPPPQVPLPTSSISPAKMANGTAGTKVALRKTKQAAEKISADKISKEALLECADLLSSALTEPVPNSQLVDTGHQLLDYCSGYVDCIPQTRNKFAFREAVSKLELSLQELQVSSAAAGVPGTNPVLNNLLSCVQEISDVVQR
Source text: as §1, §2, §3, §4, §5, §6, §7, §8

ACVR1B (ALK4) = molecular target: T4, ACVR1B (ALK4) (Homo sapiens, UniProt P36896)
T4 construct: purchased DiscoverX (DiscoveRx) KINOMEscan scanEDGE / KdELECT
Source text: as §1, §2, §3, §4, §5, §6, §7, §8

ACVR2A = molecular target: T5, ACVR2A (Homo sapiens, UniProt P27037)
T5 construct: purchased DiscoverX (DiscoveRx) KINOMEscan scanEDGE / KdELECT
Source text: as §1, §2, §3, §4, §5, §6, §7, §8

ACVR2B = molecular target: T6, ACVR2B (Homo sapiens, UniProt Q13705)
T6 construct: purchased DiscoverX (DiscoveRx) KINOMEscan scanEDGE / KdELECT
Source text: as §1, §2, §3, §4, §5, §6, §7, §8

ADCK3 = molecular target: T7, ADCK3 (Homo sapiens, UniProt Q8NI60)
T7 construct: purchased DiscoverX (DiscoveRx) KINOMEscan scanEDGE / KdELECT
Source text: as §1, §2, §3, §4, §5, §6, §7, §8

ALK = molecular target: T8, ALK (Homo sapiens, UniProt Q9UM73)
T8 construct: purchased DiscoverX (DiscoveRx) KINOMEscan scanEDGE / KdELECT
Source text: as §1, §2, §3, §4, §5, §6, §7, §8

AURKA = molecular target: T9, AURKA (Homo sapiens, UniProt O14965)
T9 construct: purchased DiscoverX (DiscoveRx) KINOMEscan scanEDGE / KdELECT
Source text: as §1, §2, §3, §4, §5, §6, §7, §8

BMPR1B (ALK6) = molecular target: T10, BMPR1B (ALK6) (Homo sapiens, UniProt O00238)
T10 construct: purchased DiscoverX (DiscoveRx) KINOMEscan scanEDGE / KdELECT
Source text: as §1, §2, §3, §4, §5, §6, §7, §8

BRAF = molecular target: T11, BRAF (Homo sapiens, UniProt P15056)
T11 construct: purchased DiscoverX (DiscoveRx) KINOMEscan scanEDGE / KdELECT
Source text: as §1, §2, §3, §4, §5, §6, §7, §8

BRAF(V600E) = molecular target: T12, BRAF(V600E) (Homo sapiens, UniProt P15056, V600E)
T12 construct: purchased DiscoverX (DiscoveRx) KINOMEscan scanEDGE / KdELECT
Source text: as §1, §2, §3, §4, §5, §6, §7, §8

BTK = molecular target: T13, BTK (Homo sapiens, UniProt Q06187)
T13 construct: purchased DiscoverX (DiscoveRx) KINOMEscan scanEDGE / KdELECT
Source text: as §1, §2, §3, §4, §5, §6, §7, §8

CDK3 = molecular target: T14, CDK3 (Homo sapiens, UniProt Q00526)
T14 construct: purchased DiscoverX (DiscoveRx) KINOMEscan scanEDGE / KdELECT
T14 sequence (Q00526 whole entry): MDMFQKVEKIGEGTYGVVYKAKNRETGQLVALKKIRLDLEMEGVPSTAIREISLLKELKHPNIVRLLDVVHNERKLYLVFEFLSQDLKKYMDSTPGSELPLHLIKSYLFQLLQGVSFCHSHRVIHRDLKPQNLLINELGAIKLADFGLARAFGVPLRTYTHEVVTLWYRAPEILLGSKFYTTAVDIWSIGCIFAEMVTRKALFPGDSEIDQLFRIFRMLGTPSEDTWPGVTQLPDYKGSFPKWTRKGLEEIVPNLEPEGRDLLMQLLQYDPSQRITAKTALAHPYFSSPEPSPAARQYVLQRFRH
Source text: as §1, §2, §3, §4, §5, §6, §7, §8

ERBB2 = molecular target: T15, ERBB2 (Homo sapiens, UniProt P04626)
T15 construct: purchased DiscoverX (DiscoveRx) KINOMEscan scanEDGE / KdELECT
Source text: as §1, §2, §3, §4, §5, §6, §7, §8

FAK = molecular target: T16, FAK (Homo sapiens, UniProt Q05397)
T16 construct: purchased DiscoverX (DiscoveRx) KINOMEscan scanEDGE / KdELECT
Source text: as §1, §2, §3, §4, §5, §6, §7, §8

FGFR2 = molecular target: T17, FGFR2 (Homo sapiens, UniProt P21802)
T17 construct: purchased DiscoverX (DiscoveRx) KINOMEscan scanEDGE / KdELECT
Source text: as §1, §2, §3, §4, §5, §6, §7, §8

JAK3(JH1domain) = molecular target: T18, JAK3(JH1domain) (Homo sapiens, UniProt P52333)
T18 construct: JAK3(JH1domain); purchased DiscoverX (DiscoveRx) KINOMEscan scanEDGE / KdELECT
T18 sequence (P52333 813-1124 limits assumed): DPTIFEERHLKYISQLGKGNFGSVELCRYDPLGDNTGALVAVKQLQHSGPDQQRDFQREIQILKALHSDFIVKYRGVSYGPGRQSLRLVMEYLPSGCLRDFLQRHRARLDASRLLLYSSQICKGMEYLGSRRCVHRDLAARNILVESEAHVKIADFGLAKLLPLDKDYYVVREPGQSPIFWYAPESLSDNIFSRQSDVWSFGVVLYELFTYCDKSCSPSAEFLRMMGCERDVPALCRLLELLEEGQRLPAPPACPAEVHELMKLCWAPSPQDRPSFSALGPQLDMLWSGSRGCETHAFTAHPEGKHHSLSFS
Source text: as §1, §2, §3, §4, §5, §6, §7, §8

JNK2 = molecular target: T19, JNK2 (Homo sapiens, UniProt P45984)
T19 construct: purchased DiscoverX (DiscoveRx) KINOMEscan scanEDGE / KdELECT
T19 sequence (P45984 whole entry): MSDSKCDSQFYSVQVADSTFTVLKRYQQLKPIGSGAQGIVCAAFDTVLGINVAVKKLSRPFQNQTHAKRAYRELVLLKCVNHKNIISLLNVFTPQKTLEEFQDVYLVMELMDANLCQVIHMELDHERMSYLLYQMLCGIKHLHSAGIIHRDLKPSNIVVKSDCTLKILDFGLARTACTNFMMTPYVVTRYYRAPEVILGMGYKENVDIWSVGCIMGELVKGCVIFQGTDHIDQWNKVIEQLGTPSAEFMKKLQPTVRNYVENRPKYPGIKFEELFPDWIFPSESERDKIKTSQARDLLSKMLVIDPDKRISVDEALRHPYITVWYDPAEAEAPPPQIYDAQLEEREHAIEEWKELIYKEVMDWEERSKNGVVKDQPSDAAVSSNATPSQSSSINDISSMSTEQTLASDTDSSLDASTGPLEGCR
Source text: as §1, §2, §3, §4, §5, §6, §7, §8

LKB1 = molecular target: T20, LKB1 (Homo sapiens, UniProt Q15831)
T20 construct: purchased DiscoverX (DiscoveRx) KINOMEscan scanEDGE / KdELECT
Source text: as §1, §2, §3, §4, §5, §6, §7, §8

MAPKAPK2 = molecular target: T21, MAPKAPK2 (Homo sapiens, UniProt P49137)
T21 construct: purchased DiscoverX (DiscoveRx) KINOMEscan scanEDGE / KdELECT
Source text: as §1, §2, §3, §4, §5, §6, §7, §8

MKNK1 = molecular target: T22, MKNK1 (Homo sapiens, UniProt Q9BUB5)
T22 construct: purchased DiscoverX (DiscoveRx) KINOMEscan scanEDGE / KdELECT
T22 sequence (Q9BUB5 whole entry): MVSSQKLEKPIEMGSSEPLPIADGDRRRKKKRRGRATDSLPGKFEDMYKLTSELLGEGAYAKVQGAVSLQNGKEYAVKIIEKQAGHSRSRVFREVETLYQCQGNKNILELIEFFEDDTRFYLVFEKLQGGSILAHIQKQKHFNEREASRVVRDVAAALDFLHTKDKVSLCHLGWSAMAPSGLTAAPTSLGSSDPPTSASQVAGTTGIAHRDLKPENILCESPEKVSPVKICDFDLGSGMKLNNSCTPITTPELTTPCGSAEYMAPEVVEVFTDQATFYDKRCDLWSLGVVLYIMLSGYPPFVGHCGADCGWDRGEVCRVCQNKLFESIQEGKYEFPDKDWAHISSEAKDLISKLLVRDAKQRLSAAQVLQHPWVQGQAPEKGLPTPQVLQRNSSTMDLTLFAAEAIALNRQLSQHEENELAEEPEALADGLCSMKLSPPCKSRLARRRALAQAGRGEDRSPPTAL
Source text: as §1, §2, §3, §4, §5, §6, §7, §8

MKNK2 = molecular target: T23, MKNK2 (Homo sapiens, UniProt Q9HBH9)
T23 construct: purchased DiscoverX (DiscoveRx) KINOMEscan scanEDGE / KdELECT
Source text: as §1, §2, §3, §4, §5, §6, §7, §8

NEK6 = molecular target: T24, NEK6 (Homo sapiens, UniProt Q9HC98)
T24 construct: purchased DiscoverX (DiscoveRx) KINOMEscan scanEDGE / KdELECT
Source text: as §1, §2, §3, §4, §5, §6, §7, §8

PAK4 = molecular target: T25, PAK4 (Homo sapiens, UniProt O96013)
T25 construct: purchased DiscoverX (DiscoveRx) KINOMEscan scanEDGE / KdELECT
Source text: as §1, §2, §3, §4, §5, §6, §7, §8

PDGFRA = molecular target: T26, PDGFRA (Homo sapiens, UniProt P16234)
T26 construct: purchased DiscoverX (DiscoveRx) KINOMEscan scanEDGE / KdELECT
T26 sequence (P16234 24-1089): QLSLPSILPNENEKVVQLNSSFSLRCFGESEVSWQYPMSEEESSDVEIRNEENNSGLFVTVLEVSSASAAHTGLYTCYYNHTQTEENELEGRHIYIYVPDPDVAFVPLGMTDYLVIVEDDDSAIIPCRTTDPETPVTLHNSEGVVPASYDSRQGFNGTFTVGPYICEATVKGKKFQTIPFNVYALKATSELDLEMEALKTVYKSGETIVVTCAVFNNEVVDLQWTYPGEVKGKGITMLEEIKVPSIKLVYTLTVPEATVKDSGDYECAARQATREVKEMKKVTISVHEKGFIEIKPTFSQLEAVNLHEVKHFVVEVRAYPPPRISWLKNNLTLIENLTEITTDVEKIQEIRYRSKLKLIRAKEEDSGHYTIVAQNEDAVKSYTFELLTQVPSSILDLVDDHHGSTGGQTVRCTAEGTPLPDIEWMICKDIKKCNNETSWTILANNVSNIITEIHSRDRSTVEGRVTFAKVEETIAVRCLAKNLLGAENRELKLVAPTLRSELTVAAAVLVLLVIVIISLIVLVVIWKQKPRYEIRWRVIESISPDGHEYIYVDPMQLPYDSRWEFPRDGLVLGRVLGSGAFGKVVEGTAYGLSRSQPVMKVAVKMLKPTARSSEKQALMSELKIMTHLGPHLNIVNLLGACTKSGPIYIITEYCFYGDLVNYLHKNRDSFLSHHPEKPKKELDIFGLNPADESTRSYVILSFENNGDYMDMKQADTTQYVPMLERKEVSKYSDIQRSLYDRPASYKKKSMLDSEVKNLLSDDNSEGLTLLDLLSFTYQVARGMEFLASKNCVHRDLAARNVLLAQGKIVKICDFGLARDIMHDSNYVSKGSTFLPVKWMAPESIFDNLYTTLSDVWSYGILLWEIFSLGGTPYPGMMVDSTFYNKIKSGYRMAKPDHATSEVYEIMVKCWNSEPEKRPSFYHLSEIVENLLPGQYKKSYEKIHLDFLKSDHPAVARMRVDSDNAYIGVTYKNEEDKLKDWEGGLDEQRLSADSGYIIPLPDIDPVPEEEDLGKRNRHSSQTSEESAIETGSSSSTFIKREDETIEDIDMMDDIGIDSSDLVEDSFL
Source text: as §1, §2, §3, §4, §5, §6, §7, §8

PIM2 = molecular target: T27, PIM2 (Homo sapiens, UniProt Q9P1W9)
T27 construct: purchased DiscoverX (DiscoveRx) KINOMEscan scanEDGE / KdELECT
Source text: as §1, §2, §3, §4, §5, §6, §7, §8

PIM3 = molecular target: T28, PIM3 (Homo sapiens, UniProt Q86V86)
T28 construct: purchased DiscoverX (DiscoveRx) KINOMEscan scanEDGE / KdELECT
Source text: as §1, §2, §3, §4, §5, §6, §7, §8

PKACEalpha = molecular target: T29, PKACEalpha (Homo sapiens, UniProt P17612)
T29 construct: purchased DiscoverX (DiscoveRx) KINOMEscan scanEDGE / KdELECT
Source text: as §1, §2, §3, §4, §5, §6, §7, §8

PLK3 = molecular target: T30, PLK3 (Homo sapiens, UniProt Q9H4B4)
T30 construct: purchased DiscoverX (DiscoveRx) KINOMEscan scanEDGE / KdELECT
Source text: as §1, §2, §3, §4, §5, §6, §7, §8

RAF1 = molecular target: T31, RAF1 (Homo sapiens, UniProt P04049)
T31 construct: purchased DiscoverX
Source text: as §1, §2, §3, §4, §5, §6, §7, §8

ROCK2 = molecular target: T32, ROCK2 (Homo sapiens, UniProt O75116)
T32 construct: purchased DiscoverX (DiscoveRx) KINOMEscan scanEDGE / KdELECT
Source text: as §1, §2, §3, §4, §5, §6, §7, §8

SRPK3 = molecular target: T33, SRPK3 (Homo sapiens, UniProt Q9UPE1)
T33 construct: purchased DiscoverX (DiscoveRx) KINOMEscan scanEDGE / KdELECT
T33 sequence (Q9UPE1 whole entry): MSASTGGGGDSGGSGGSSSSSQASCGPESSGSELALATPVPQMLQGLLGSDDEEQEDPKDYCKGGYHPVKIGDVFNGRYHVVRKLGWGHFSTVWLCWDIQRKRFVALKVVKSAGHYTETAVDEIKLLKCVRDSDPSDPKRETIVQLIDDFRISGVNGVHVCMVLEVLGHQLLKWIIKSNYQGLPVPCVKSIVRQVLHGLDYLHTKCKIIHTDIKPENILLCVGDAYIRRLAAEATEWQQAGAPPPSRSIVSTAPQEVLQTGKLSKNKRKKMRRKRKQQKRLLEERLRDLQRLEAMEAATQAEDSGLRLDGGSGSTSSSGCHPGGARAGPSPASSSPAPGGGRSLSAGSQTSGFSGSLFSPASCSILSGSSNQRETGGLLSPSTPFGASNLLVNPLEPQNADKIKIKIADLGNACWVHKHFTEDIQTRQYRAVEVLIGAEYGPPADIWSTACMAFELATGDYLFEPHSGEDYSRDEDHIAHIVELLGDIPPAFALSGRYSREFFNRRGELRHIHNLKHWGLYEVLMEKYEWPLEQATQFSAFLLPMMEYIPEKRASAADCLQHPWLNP
Source text: as §1, §2, §3, §4, §5, §6, §7, §8

TRKA = molecular target: T34, TRKA (Homo sapiens, UniProt P04629)
T34 construct: purchased DiscoverX (DiscoveRx) KINOMEscan scanEDGE / KdELECT
Source text: as §1, §2, §3, §4, §5, §6, §7, §8

ULK2 = molecular target: T35, ULK2 (Homo sapiens, UniProt Q8IYT8)
T35 construct: purchased DiscoverX (DiscoveRx) KINOMEscan scanEDGE / KdELECT
Source text: as §1, §2, §3, §4, §5, §6, §7, §8

VEGFR2 = molecular target: T36, VEGFR2 (Homo sapiens, UniProt P35968)
T36 construct: purchased DiscoverX (DiscoveRx) KINOMEscan scanEDGE / KdELECT
Source text: as §1, §2, §3, §4, §5, §6, §7, §8

YANK3 = molecular target: T37, YANK3 (Homo sapiens, UniProt Q86UX6)
T37 construct: purchased DiscoverX (DiscoveRx) KINOMEscan scanEDGE / KdELECT
Source text: as §1, §2, §3, §4, §5, §6, §7, §8

p38Ealpha = molecular target: T38, p38Ealpha (Homo sapiens, UniProt Q16539)
T38 construct: purchased DiscoverX (DiscoveRx) KINOMEscan scanEDGE / KdELECT
Source text: as §1, §2, §3, §4, §5, §6, §7, §8

p38Ebeta = molecular target: T39, p38Ebeta (Homo sapiens, UniProt Q15759)
T39 construct: purchased DiscoverX (DiscoveRx) KINOMEscan scanEDGE / KdELECT
T39 sequence (Q15759 whole entry): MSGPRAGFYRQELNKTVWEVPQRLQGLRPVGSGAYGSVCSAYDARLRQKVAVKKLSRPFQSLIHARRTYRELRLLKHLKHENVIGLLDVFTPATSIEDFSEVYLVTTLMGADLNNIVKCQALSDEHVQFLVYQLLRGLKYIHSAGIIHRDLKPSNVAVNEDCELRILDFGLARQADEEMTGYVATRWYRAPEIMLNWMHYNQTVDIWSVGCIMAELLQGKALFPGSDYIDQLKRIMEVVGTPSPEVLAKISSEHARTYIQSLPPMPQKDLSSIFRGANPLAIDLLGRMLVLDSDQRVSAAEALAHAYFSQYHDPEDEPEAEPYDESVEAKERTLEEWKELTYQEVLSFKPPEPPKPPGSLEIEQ
Source text: as §1, §2, §3, §4, §5, §6, §7, §8

Which results are given for `O=c1c2cc(-c3ccnc4ccccc34)ccc2ncn1-c1ccc(N2CCOCC2)cc1` [compound 16, 3-(4-Morpholinophenyl)-6-(quinolin-4-yl)quinazolin-4(3H)-one]?
remaining binding at 1 µM (ABL1(T315I)EP): 100%; remaining binding at 1 µM (ABL1EP): 77%; remaining binding at 1 µM (ABL2): 97%; remaining binding at 1 µM (ACVR1B (ALK4)): 100%; remaining binding at 1 µM (ACVR2A): 100%; remaining binding at 1 µM (ACVR2B): 98%; remaining binding at 1 µM (ADCK3): 100%; remaining binding at 1 µM (ALK): 99%; remaining binding at 1 µM (AURKA): 100%; remaining binding at 1 µM (BMPR1B (ALK6)): 4.1%; remaining binding at 1 µM (BRAF): 65%; remaining binding at 1 µM (BRAF(V600E)): 58%; remaining binding at 1 µM (BTK): 99%; remaining binding at 1 µM (CDK3): 100%; remaining binding at 1 µM (ERBB2): 100%; remaining binding at 1 µM (FAK): 97%; remaining binding at 1 µM (FGFR2): 100%; remaining binding at 1 µM (JAK3(JH1domain)): 98%; remaining binding at 1 µM (JNK2): 100%; remaining binding at 1 µM (LKB1): 96%; remaining binding at 1 µM (MAPKAPK2): 96%; remaining binding at 1 µM (MKNK1): 92%; remaining binding at 1 µM (MKNK2): 100%; remaining binding at 1 µM (NEK6): 100%; remaining binding at 1 µM (PAK4): 97%; remaining binding at 1 µM (PDGFRA): 8.7%; remaining binding at 1 µM (PIM2): 89%; remaining binding at 1 µM (PIM3): 100%; remaining binding at 1 µM (PKACEalpha): 89%; remaining binding at 1 µM (PLK3): 90%; remaining binding at 1 µM (RAF1): 88%; remaining binding at 1 µM (ROCK2): 100%; remaining binding at 1 µM (SRPK3): 79%; remaining binding at 1 µM (TRKA): 76%; remaining binding at 1 µM (ULK2): 93%; remaining binding at 1 µM (VEGFR2): 95%; remaining binding at 1 µM (YANK3): 86%; remaining binding at 1 µM (p38Ealpha): 100%; remaining binding at 1 µM (p38Ebeta): 100%
